Measurements published in patent US9271946B2, “Use of a RAR antagonist or inverse agonist for the treatment of chemotherapy and/or radiation therapy side effects” (IO Therapeutics, Inc., priority 2006, dated 2016).

Biological target: T1, RARα (Homo sapiens, UniProt P10276)
T1 sequence (P10276 1-462): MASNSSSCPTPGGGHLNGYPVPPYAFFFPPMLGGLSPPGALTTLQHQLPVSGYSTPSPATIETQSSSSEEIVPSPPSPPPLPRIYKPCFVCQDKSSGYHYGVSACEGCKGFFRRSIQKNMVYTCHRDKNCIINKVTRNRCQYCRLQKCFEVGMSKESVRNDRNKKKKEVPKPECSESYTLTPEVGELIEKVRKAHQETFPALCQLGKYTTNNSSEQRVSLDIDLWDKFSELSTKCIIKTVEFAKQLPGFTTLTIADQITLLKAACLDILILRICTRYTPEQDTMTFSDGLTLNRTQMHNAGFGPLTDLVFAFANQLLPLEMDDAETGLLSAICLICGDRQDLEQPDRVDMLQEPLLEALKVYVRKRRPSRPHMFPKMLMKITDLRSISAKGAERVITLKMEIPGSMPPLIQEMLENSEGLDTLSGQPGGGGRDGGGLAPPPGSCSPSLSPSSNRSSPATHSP
Test: binding to RARα

For `CCc1ccc(C2=CC(C)(C)Sc3ccc(C#Cc4ccc(C(=O)O)cc4)cc32)cc1` [VTP 194310, 4-[[4-(4-ethylphenyl)-2,2-dimethyl-(2H)-thiochromen-6-yl]-ethynyl]-benzoic acid], which Ki is on record?
Its Ki is 3 nM.
